The values that follow come from US9850283B2, “Macrocyclic inhibitors of the PD-1/PD-L1 and CD80(B7-1)/PD-L1 protein/protein interactions” (BRISTOL-MYERS SQUIBB COMPANY, priority 2013, dated 2017).

Like-named read-outs stand apart in the source and are kept apart here. Positions of bridges follow the written chain, without caps; N, C: chain ends. Non-standard residues stand in square brackets, D forms with d. Residues, ends and D or L forms follow the SMILES beside them. ξ: configuration not given here. Phe(F5) = N[C@@H](Cc1c(F)c(F)c(F)c(F)c1F)C(=O)O; Phe(4-COOH) = N[C@@H](Cc1ccc(C(=O)O)cc1)C(=O)O; Bta = N[C@@H](Cc1csc2ccccc12)C(=O)O; ξPro(4R-OH) = O=C(O)C1C[C@@H](O)CN1; Hyp = O=C(O)[C@@H]1C[C@@H](O)CN1; NMeF = CN[C@@H](Cc1ccccc1)C(=O)O; NMeL = CN[C@@H](CC(C)C)C(=O)O; NMeNle = CCCC[C@H](NC)C(=O)O; NMeS = CN[C@@H](CO)C(=O)O; NMeA = CN[C@@H](C)C(=O)O; Dab = NCC[C@H](N)C(=O)O; Dap = NC[C@H](N)C(=O)O; ξC = NC(CS)C(=O)O; Sar = CNCC(=O)O

The term IC50 denotes the concentration needed to halve the response being measured.

Test [1] has as its target T1, LK35.2-hPD-L1 cells / PE-labeled PD-1-Ig (Homo sapiens, UniProt Q9NZQ7).
T1 construct: expressed in transfected cells; host or cells: LK35.2 mouse B cell line
In words: LK35.2-hPD-L1 cell binding high-content screening assay. The note with it: cluster symbol, read-out: CBA IC50 cluster. The test is classed as cell-based. The method in brief:
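Binding of PE-conjugated human PD-1-Ig (1 nM final) to human PD-L1 stably expressed on a mouse B-cell line (LK35.2) was measured by high-content imaging after washes. Compound and labeled PD-1-Ig were co-incubated 1 h at 37 °C with cells in RPMI/10% FCS.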

Another test addresses T2, Human PD-L1/PD-1 (Homo sapiens, UniProt Q9NZQ7).
T2 construct: made in house; host or cells: HEK293T
Put plainly: HTRF PD-1-Ig/PD-L1-His binding assay (human PD-L1). The note with it: cluster symbol; read-out: HTRF IC50 cluster. The method in brief: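 Soluble PD-1-Ig binding to PD-L1-His measured by HTRF in dPBS with 0.1% BSA and 0.05% Tween-20. Detection used europium cryptate anti-Ig antibody (1 nM final) and APC anti-His antibody (20 nM final) added on top of the binding reaction.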
On the technique in general: In TR-FRET formats the signal depends on donor and acceptor labels being close together.

Setting [2] is: cell binding assay, cell line not given.
Setting [3] is: cell line of CBA not given (LK35.2-hPD-L1 or 293T-hPD-L1).

T1 sequence (Q9NZQ7 19-290): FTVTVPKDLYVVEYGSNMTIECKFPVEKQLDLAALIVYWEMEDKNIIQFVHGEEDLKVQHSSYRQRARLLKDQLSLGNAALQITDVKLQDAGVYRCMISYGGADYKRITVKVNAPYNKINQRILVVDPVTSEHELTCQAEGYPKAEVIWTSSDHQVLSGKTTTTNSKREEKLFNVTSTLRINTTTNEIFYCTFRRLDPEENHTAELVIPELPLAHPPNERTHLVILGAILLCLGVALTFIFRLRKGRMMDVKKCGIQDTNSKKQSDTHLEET
T2 sequence (Q9NZQ7 with tags, fused parts or gaps): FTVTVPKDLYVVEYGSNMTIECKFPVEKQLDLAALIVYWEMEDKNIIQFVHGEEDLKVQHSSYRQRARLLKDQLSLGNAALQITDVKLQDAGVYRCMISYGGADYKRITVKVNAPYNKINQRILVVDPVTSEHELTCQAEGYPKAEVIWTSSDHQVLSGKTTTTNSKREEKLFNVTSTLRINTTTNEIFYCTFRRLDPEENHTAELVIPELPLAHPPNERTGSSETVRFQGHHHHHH

For `CCCC[C@H]1C(=O)N(C)CC(=O)N[C@@H](CC(=O)O)C(=O)N[C@@H](C(C)C)C(=O)N(C)[C@@H](Cc2ccccc2)C(=O)N[C@@H](Cc2ccc(O)cc2)C(=O)N(C)[C@@H](Cc2ccc(O)cc2)C(=O)N[C@@H](Cc2c[nH]c3ccccc23)C(=O)N[C@@H](Cc2ccc(O)cc2)C(=O)N[C@@H](CC(C)C)C(=O)N[C@H](C(=O)NCC(N)=O)CSCC(=O)N[C@@H](Cc2ccccc2)C(=O)N(C)[C@@H](Cc2ccccc2)C(=O)N1C` [Example 3511] (HELM PEPTIDE1{[O=C(C[*:3])[*:2]].F.[meF].[CCCC[C@@H](C(=O)[*:2])N(C)[*:1]].[Sar].D.V.[meF].Y.[meY].W.Y.L.C.G.[am]}$PEPTIDE1,PEPTIDE1,1:R3-14:R3$$$V2.0), the IC50 in test [1] (setting [2]) is 4.78 to 72.9 nM; at Human PD-L1/PD-1, more than 30.5 nM.
As for `CCCC[C@H]1C(=O)N(C)CC(=O)N[C@@H](CC(=O)O)C(=O)N[C@@H](C(C)C)C(=O)N(C)[C@@H](Cc2ccccc2)C(=O)N[C@@H](Cc2c(F)c(F)c(F)c(F)c2F)C(=O)N(C)CC(=O)N[C@@H](Cc2c[nH]c3ccccc23)C(=O)N[C@@H](Cc2ccc(O)cc2)C(=O)N[C@@H](CC(C)C)C(=O)N[C@H](C(=O)NCC(N)=O)CSCC(=O)N[C@@H](Cc2ccccc2)C(=O)N(C)[C@@H](Cc2ccccc2)C(=O)N1C` [Example 3079] ({CH2CO}-F[NMeF][NMeNle][Sar]DV[NMeF][Phe(F5)][Sar]WYLCG-NH2; thioether N-13), the IC50 in test [1] (setting [3]) is 4.78 to 72.9 nM; on Human PD-L1/PD-1 it was more than 30.5 nM.
In the case of `CCCC[C@H]1C(=O)N(C)[C@@H](CCCC)C(=O)N[C@@H](CCCNC(=N)N)C(=O)N[C@H](C(=O)NCC(N)=O)CSCC(=O)N[C@@H](Cc2ccccc2)C(=O)N(C)[C@@H](C)C(=O)N[C@@H](CC(N)=O)C(=O)N2CCC[C@H]2C(=O)N[C@@H](CN)C(=O)N[C@@H](CC(C)C)C(=O)N(C)CC(=O)N[C@@H](Cc2c[nH]c3ccccc23)C(=O)N[C@@H](CO)C(=O)N[C@@H](Cc2c[nH]c3ccccc23)C(=O)N1C` [Example 1060] ({CH2CO}-F[NMeA]NP[Dap]L[Sar]WSW[NMeNle][NMeNle]RCG-NH2; thioether N-14), the IC50 in test [1] (setting [3]) was 4.78 to 72.9 nM; on Human PD-L1/PD-1, 6.76 to 30.3 nM.
Regarding `CCCC[C@H]1C(=O)N(C)[C@@H](CCCC)C(=O)N[C@@H](C)C(=O)N[C@H](C(=O)NCC(N)=O)CSCC(=O)N[C@@H](Cc2ccc(O)cc2)C(=O)N(C)[C@@H](C)C(=O)N[C@@H](CC(=O)O)C(=O)N2CCC[C@H]2C(=O)N[C@@H](Cc2c[nH]cn2)C(=O)N[C@@H](CCCCN)C(=O)N2C[C@H](O)CC2C(=O)N[C@@H](Cc2c[nH]c3ccccc23)C(=O)N[C@@H](CO)C(=O)N[C@@H](Cc2c[nH]c3ccccc23)C(=O)N1C` (stereo partly drawn) [Example 1202] ({CH2CO}-Y[NMeA]DPHK[ξPro(4R-OH)]WSW[NMeNle][NMeNle]ACG-NH2; thioether N-14), the IC50 in test [1] (setting [3]) fell in the range of 0.158 to 4.71 nM; at Human PD-L1/PD-1, 0.385 to 6.74 nM.
With `CCCC[C@H]1C(=O)N(C)[C@@H](CCCC)C(=O)N[C@@H](CCCNC(=N)N)C(=O)N[C@H](C(=O)NCC(N)=O)CSCC(=O)N[C@@H](Cc2ccccc2)C(=O)N(C)[C@@H](C)C(=O)N[C@@H](CCC(N)=O)C(=O)N2CCC[C@H]2C(=O)N[C@@H](Cc2cnc[nH]2)C(=O)N[C@@H](CC(C)C)C(=O)N(C)CC(=O)N[C@@H](Cc2c[nH]c3ccccc23)C(=O)N[C@@H](CO)C(=O)N[C@@H](Cc2c[nH]c3ccccc23)C(=O)N1C` [Example 1089] ({CH2CO}-F[NMeA]QPHL[Sar]WSW[NMeNle][NMeNle]RCG-NH2; thioether N-14), the IC50 in test [1] (setting [3]) was more than 74.3 nM; at Human PD-L1/PD-1, more than 30.5 nM.
Turning to `CCCC[C@H]1C(=O)N(C)[C@@H](CCCC)C(=O)N[C@@H](CN)C(=O)N[C@H](C(=O)NCC(N)=O)CSCC(=O)N[C@@H](Cc2ccc(O)cc2)C(=O)N(C)[C@@H](C)C(=O)N[C@@H](CC(N)=O)C(=O)N2CCC[C@H]2C(=O)N[C@@H](CN)C(=O)N[C@@H](CC(=O)O)C(=O)N2C[C@H](O)C[C@H]2C(=O)N[C@@H](Cc2c[nH]c3ccccc23)C(=O)N[C@@H](CCN)C(=O)N[C@@H](Cc2csc3ccccc23)C(=O)N1C` [Example 1226] ({CH2CO}-Y[NMeA]NP[Dap]D[Hyp]W[Dab][Bta][NMeNle][NMeNle][Dap]CG-NH2; thioether N-14), the results for the IC50 (in test [1] (setting [3]); at Human PD-L1/PD-1) were 0.158 to 4.71 nM and 0.385 to 6.74 nM, respectively.
As to `CCCC[C@H]1C(=O)N[C@@H](CN)C(=O)N[C@H](C(=O)NCC(N)=O)CSCC(=O)N[C@@H](Cc2ccc(O)cc2)C(=O)N(C)[C@@H](C)C(=O)N[C@@H](CC(N)=O)C(=O)N2CCC[C@H]2C(=O)N[C@@H](Cc2c[nH]cn2)C(=O)N[C@@H](CCC(=O)O)C(=O)N2C[C@H](O)C[C@H]2C(=O)N[C@@H](Cc2c[nH]c3ccccc23)C(=O)N[C@@H](CCN)C(=O)N[C@@H](Cc2c[nH]c3ccccc23)C(=O)N(C)[C@@H](CC(C)C)C(=O)N1C` [Example 5143] ({CH2CO}-Y[NMeA]NPHE[Hyp]W[Dab]W[NMeL][NMeNle][Dap]CG-NH2; thioether N-14), the results for the IC50 (in test [1] (setting [2]); on Human PD-L1/PD-1) were 4.78 to 72.9 nM and 0.385 to 6.74 nM, respectively.
On to `CCCC[C@H]1C(=O)N(C)[C@@H](CCCC)C(=O)N[C@@H](CN)C(=O)N[C@H](C(=O)NCC(N)=O)CSCC(=O)N[C@@H](Cc2ccc(O)cc2)C(=O)N(C)[C@@H](C)C(=O)N[C@@H](CC(N)=O)C(=O)N2CCC[C@H]2C(=O)N[C@@H](CN)C(=O)N[C@@H](CC(C)C)C(=O)N2C[C@H](O)C[C@H]2C(=O)N[C@@H](Cc2c[nH]c3ccccc23)C(=O)N[C@@H](CO)C(=O)N[C@@H](Cc2c[nH]c3ccccc23)C(=O)N1C` [Example 5063] ({CH2CO}-Y[NMeA]NP[Dap]L[Hyp]WSW[NMeNle][NMeNle][Dap]CG-NH2; thioether N-14), for which the figures for the IC50 (in test [1] (setting [2]); at Human PD-L1/PD-1) were 0.158 to 4.71 nM and 0.385 to 6.74 nM, respectively.
`CCCC[C@H]1C(=O)N(C)[C@@H](COCC)C(=O)N[C@@H](CCCNC(=N)N)C(=O)NC(C(=O)NCC(N)=O)CSCC(=O)N[C@@H](Cc2ccc(O)cc2)C(=O)N(C)[C@@H](C)C(=O)N[C@@H](CC(N)=O)C(=O)N2CCC[C@H]2C(=O)N[C@@H](Cc2cnc[nH]2)C(=O)N[C@@H](CC(C)C)C(=O)N2C[C@H](O)C[C@H]2C(=O)N[C@@H](Cc2c[nH]c3ccccc23)C(=O)N[C@@H](CO)C(=O)N[C@@H](Cc2csc3ccccc23)C(=O)N1C` (stereo partly shown) [Example 9042] ({CH2CO}-Y[NMeA]NPHL[Hyp]WS[Bta][NMeNle][NMeS](Et)R[ξC]G-NH2; thioether N-14): the figures for the IC50 (in test [1] (setting [2]); at Human PD-L1/PD-1) were 0.158 to 4.71 nM and 0.385 to 6.74 nM, respectively.
For the molecule `CCCC[C@H]1C(=O)N(C)[C@@H](CCCC)C(=O)N[C@@H](CCCNC(=N)N)C(=O)N[C@H](C(=O)NCC(N)=O)CSCC(=O)N[C@@H](Cc2ccc(O)cc2)C(=O)N(C)[C@@H](C)C(=O)N[C@@H](CC(N)=O)C(=O)N2CCC[C@H]2C(=O)N[C@@H](Cc2cnc[nH]2)C(=O)N[C@@H](CC(C)C)C(=O)N2C[C@H](C#N)C[C@H]2C(=O)N[C@@H](Cc2c[nH]c3ccccc23)C(=O)N[C@@H](CO)C(=O)N[C@@H](Cc2c[nH]c3ccccc23)C(=O)N1C` [Example 6022], the IC50 in test [1] (setting [2]) lay within 0.158 to 4.71 nM; at Human PD-L1/PD-1, 0.385 to 6.74 nM.
Consider `CCCC[C@H]1C(=O)N(C)[C@@H](CCCC)C(=O)N[C@@H](CCCNC(=N)N)C(=O)N[C@H](C(=O)NCC(N)=O)CSCC(=O)N[C@@H](Cc2ccc(C(=O)O)cc2)C(=O)N(C)[C@@H](C)C(=O)N[C@@H](CC(N)=O)C(=O)N2CCC[C@H]2C(=O)N[C@@H](Cc2cnc[nH]2)C(=O)N[C@@H](CC(C)C)C(=O)N(C)CC(=O)N[C@@H](Cc2c[nH]c3ccccc23)C(=O)N[C@@H](CO)C(=O)N[C@@H](Cc2c[nH]c3ccccc23)C(=O)N1C` [Example 1095] ({CH2CO}-[Phe(4-COOH)][NMeA]NPHL[Sar]WSW[NMeNle][NMeNle]RCG-NH2; thioether N-14), for which the IC50 in test [1] (setting [3]) was more than 74.3 nM; at Human PD-L1/PD-1, more than 30.5 nM.
